# Measured values as given in patent publication US9474755B2, “GLP-1 receptor modulators” (Receptos, Inc., priority 2014, dated 2016).
# Biological target: T1, GLP-1R (Homo sapiens, UniProt P43220)
# T1 construct: host or cells: CRE-bla CHO-K1
# Assay: EC20 GLP-1(9-36) PAM cAMP Assay: dose response of compound in the presence of fixed concentration of GLP-1(9-36)
# Assay type: cell-based
# Settings: GLP-1R CRE-bla CHO-K1 cells, in presence of fixed concentration of GLP-1(9-36), 30 min at 37° C.
# Protocol: EC20 GLP-1(9-36) PAM cAMP Assay: Dose Response of Compound in the Presence of Fixed Concentration of GLP-1 (9-36).
# GLP-1R CRE-bla CHO-K1 cells cultured in growth medium (DMEM-High glucose, 10% dialyzed FBS, 0.1 mM NEAA, 25 mM Hepes, 100 U/mL penicillin/100 μg/mL streptomycin, 5 μg/mL Blasticidin, 600 μg/mL Hygromycin) were trypsinized and plated in suspension into 384 well white flat bottom plates at 5000 cells/well in 12 μL assay buffer (Hanks Balanced Salt solution, 10 mM Hepes, 0.1% BSA, 10 pH 7.4). A 5× compound dose response curve (12-point) was generated in assay buffer containing 1.5 mM IBMX, 4% DMSO. GLP-1(9-36) was diluted to 4.2 μM in assay buffer containing 1.5 mM IBMX and 4% DMSO. The 5× compound dose response was added (3 μL), followed by 0.5 μL of GLP-1(9-36) and cells were incubated for 30 min at 37° C. Direct detection of cAMP was carried out using DiscoveRx HitHunter cAMP kit according to manufacturer's instructions and luminescence was read using a SpectraMax M5 plate reader. Luminescence was converted to total cAMP using a cAMP standard curve and data was analyzed by non-linear regression to determine the EC50 and Emax.
# T1 sequence (P43220 24-463): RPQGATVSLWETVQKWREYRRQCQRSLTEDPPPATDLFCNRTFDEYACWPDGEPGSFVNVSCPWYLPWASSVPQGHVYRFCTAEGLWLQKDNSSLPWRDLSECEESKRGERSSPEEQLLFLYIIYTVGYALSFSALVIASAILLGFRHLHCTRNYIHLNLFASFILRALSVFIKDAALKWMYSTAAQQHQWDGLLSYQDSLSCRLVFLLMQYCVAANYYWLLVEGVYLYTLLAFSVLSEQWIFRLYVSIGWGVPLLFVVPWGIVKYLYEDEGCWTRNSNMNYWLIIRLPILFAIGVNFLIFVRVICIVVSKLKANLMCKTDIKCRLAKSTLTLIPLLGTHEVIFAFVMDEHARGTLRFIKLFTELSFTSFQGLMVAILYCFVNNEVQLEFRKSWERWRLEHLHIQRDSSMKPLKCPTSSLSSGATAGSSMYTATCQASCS
# T1 sequence (P01275 100-127 partner limits assumed): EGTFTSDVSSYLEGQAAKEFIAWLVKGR
row,EC50 [nM],Compound
1,500 to 2500,CCCC1CCC(C2CC=C(c3cnc(-c4ccc(C[C@H](NC(=O)c5ccc(C(C)(C)C)s5)C(=O)O)cc4)nc3)CC2)CC1 (stereo partly shown) [Compound 9]
2,500 to 2500,CC(C)(C)c1ccc(C(=O)N[C@@H](Cc2ccc(-c3ncc(C4=CCC([C@H]5CC[C@H](C)CC5)CC4)cn3)cc2)C(=O)NCC2CCNC2)s1 (stereo partly shown) [Compound 114]
3,< 500,CCCC1CCC(C2CC=C(c3cnc(-c4ccc(C[C@H](NC(=O)c5ccc(CC(C)C)s5)C(=O)N5CC(C(=O)O)C5)cc4)nc3)CC2)CC1 (stereo partly shown) [Compound 32]
4,< 500,CCO[C@H]1CC[C@H](C2CC=C(c3cnc(-c4ccc(C[C@H](NC(=O)c5ccc(C(C)(C)C)s5)C(=O)N5CC(C(=O)O)C5)cc4)nc3)CC2)CC1 (stereo partly shown) [Compound 84]
5,500 to 2500,C[C@@H](NC(=O)[C@H](Cc1ccc(-c2ncc(C3=CCC(C)(C)C=C3)cn2)cc1)NC(=O)c1ccc(C(C)(C)C)s1)C(=O)O [Compound 60]
6,< 500,CCCC1CCC(C2CC=C(c3cnc(-c4ccc(C[C@H](NC(=O)c5ccc(C6CC6)cc5)C(=O)N5CC(C(=O)O)C5)cc4)nc3)CC2)CC1 (stereo partly shown) [Compound 24]
7,< 500,CCC[C@H]1CC[C@H](C2CC=C(c3cnc(-c4ccc(C[C@H](NC(=O)c5ccc(CC(C)C)s5)C(=O)N5CC(C(=O)O)C5)cc4)nc3)CC2)CC1 (stereo partly shown) [Compound 118]
8,< 500,"CCCC1CCC(C2CC=C(c3cnc(-c4ccc(C[C@H](NC(=O)c5ccc(C(C)(C)C)s5)C(=O)N5CC[C@H](C(=O)O)C5)cc4)nc3)CC2)CC1 (stereo partly drawn) [Compound 7, (3S)-1-((2S)-2-(5-(tert-butyl)thiophene-2-carboxamido)-3-(4-(5-(4′-propyl-[1,1′-bi(cyclohexan)]-3-en-4-yl)pyrimidin-2-yl)phenyl)propanoyl)pyrrolidine-3-carboxylic acid]"
9,< 500,CC[C@H]1CC[C@H](C2CC=C(c3cnc(-c4ccc(C[C@H](NC(=O)c5ccc(C(C)(C)C)s5)C(=O)N5CCC[C@H]5C(=O)O)cc4)nc3)CC2)CC1 (stereo partly shown) [Compound 105]
10,< 500,CC(C)CC1CCC(C2CC=C(c3cnc(-c4ccc(C[C@H](NC(=O)c5ccc(C(C)(C)C)s5)C(=O)N5CC(C(=O)O)C5)cc4)nc3)CC2)CC1 (stereo partly shown) [Compound 86]
11,< 500,"CC[C@H]1CC[C@H](C2CC=C(c3cnc(-c4ccc(C[C@H](NC(=O)c5ccc(C(C)(C)C)s5)C(=O)N5CC[C@H](C(=O)O)C5)cc4)nc3)CC2)CC1 (stereo partly drawn) [Compound 110, (S)-1-((S)-2-(5-(tert-butyl)thiophene-2-carboxamido)-3-(4-(5-((1RS,1′r,4′RS)-4′-ethyl-[1,1′-bi(cyclohexan)]-3-en-4-yl)pyrimidin-2-yl)phenyl)propanoyl)pyrrolidine-3-carboxylic acid]"
12,< 500,CCCC1CCC(C2CC=C(c3cnc(-c4ccc(C[C@H](NC(=O)c5ccc(C(C)(C)C)s5)C(=O)N[C@@H](CO)C(=O)O)cc4)nc3)CC2)CC1 (stereo partly shown) [Compound 73]
13,500 to 2500,CCCC1CCC(C2CCC(c3cnc(-c4ccc(C[C@H](NC(=O)c5ccc(C(C)C)s5)C(=O)N5CC(C(=O)O)C5)cc4)nc3)CC2)CC1 (stereo partly shown) [Compound 16]
14,500 to 2500,COC1CCC(C2CC=C(c3cnc(-c4ccc(C[C@H](NC(=O)c5ccc(C(C)(C)C)s5)C(=O)N5CC(C(=O)O)C5)cc4)nc3)CC2)CC1 (stereo partly shown) [Compound 48]
15,< 500,"CCC[C@H]1CC[C@H](C2CC=C(c3cnc(-c4ccc(C[C@H](NC(=O)c5ccc(C(C)(C)C)cc5)C(=O)N5CC(C(=O)O)C5)cc4)nc3)CC2)CC1 (mixture of isomers) [Compound 14, 1-((S)-2-(4-(tert-butyl)benzamido)-3-(4-(5-((1RS,1′s,4′RS)-4′-propyl-[1,1′-bi(cyclohexan)]-3-en-4-yl)pyrimidin-2-yl)phenyl)propanoyl)azetidine-3-carboxylic acid]"
16,500 to 2500,CC(C)(C)c1ccc(C(=O)N[C@@H](Cc2ccc(-c3ncc(C4=CCC(C5CCCCC5)CC4)cn3)cc2)C(=O)O)s1 (stereo partly shown) [Compound 120]
17,2500 to 5000,CCCC1CCC(C2CCC(c3cnc(-c4ccc(C[C@H](NC(=O)c5ccc(C(C)C)cc5)C(=O)N5CC(C(=O)O)C5)cc4)nc3)CC2)CC1 (stereo partly shown) [Compound 12]
18,500 to 2500,CCCC1CCC(C2CC=C(c3cnc(-c4ccc(C[C@H](NC(=O)c5ccc(C(C)(C)C(F)(F)F)cc5)C(=O)N5CC(C(=O)O)C5)cc4)nc3)CC2)CC1 (stereo partly shown) [Compound 35]
19,2500 to 5000,C[C@@H](NC(=O)[C@H](Cc1ccc(-c2ncc(C3=CCC4(CC3)OCCO4)cn2)cc1)NC(=O)c1ccc(C(C)(C)C)s1)C(=O)O [Compound 66]
20,500 to 2500,CCCC1CCC(C2CC=C(c3cnc(-c4ccc(C[C@H](NC(=O)c5ccc(C(C)(C)C)s5)C(=O)N[C@H](C(=O)O)C(C)C)cc4)nc3)CC2)CC1 (stereo partly shown) [Compound 75]
21,< 500,CCCC1CCC(C2CC=C(c3cnc(-c4ccc(C[C@H](NC(=O)c5ccc(CC(C)C)cc5)C(=O)N5CC(C(=O)O)C5)cc4)nc3)CC2)CC1 (stereo partly shown) [Compound 23]
22,500 to 2500,CCCC1CCC(C2CC=C(c3cnc(-c4ccc(C[C@H](NC(=O)c5cnn(C(C)(C)C)c5)C(=O)N5CC(C(=O)O)C5)cc4)nc3)CC2)CC1 (stereo partly shown) [Compound 19]

row,EC50 [nM],Compound
1,5000 to 10000,C[C@@H](NC(=O)[C@H](Cc1ccc(-c2ncc(C3=CCCCC3)cn2)cc1)NC(=O)c1ccc(C(C)(C)C)s1)C(=O)O [Compound 54]
2,< 500,CCCC1CCC(C2CC=C(c3cnc(-c4ccc(C[C@H](NC(=O)c5ccc(OC(C)C)cc5)C(=O)N5CC(C(=O)O)C5)cc4)nc3)CC2)CC1 (stereo partly shown) [Compound 27]
3,< 500,CCCc1ccc(C2CC=C(c3cnc(-c4ccc(C[C@H](NC(=O)c5ccc(C(C)(C)C)s5)C(=O)N5CC(C(=O)O)C5)cc4)nc3)CC2)cc1 (stereo partly shown) [Compound 47]
4,< 500,CCc1ccc(C(=O)N[C@@H](Cc2ccc(-c3ncc(C4=CCC(C5CCC(C)(C)CC5)CC4)cn3)cc2)C(=O)N2CC(C(=O)O)C2)s1 (stereo partly shown) [Compound 92]
5,< 500,C[C@@H](NC(=O)[C@H](Cc1ccc(-c2ncc(C3=CCC(c4ccccc4)CC3)cn2)cc1)NC(=O)c1ccc(C(C)(C)C)s1)C(=O)O (stereo partly shown) [Compound 10]
6,< 500,CCC[C@H]1CC[C@H](C2CC=C(c3cnc(-c4ccc(C[C@H](NC(=O)c5ccc(C(C)(C)C)s5)C(=O)N5CC(C(=O)O)C5)cc4)nc3)C(C)C2)CC1 (stereo partly shown) [Compound 87]
7,< 500,CC(C)(C)c1ccc(C(=O)N[C@@H](Cc2ccc(-c3ncc(C4=CCC(C5CCCCC5)CC4)cn3)cc2)C(=O)N2CC(C(=O)O)C2)s1 (stereo partly shown) [Compound 77]
8,500 to 2500,CCCC1CCC(C2CC=C(c3cnc(-c4ccc(C[C@H](NC(=O)c5ccc(C(C)=O)cc5)C(=O)N5CC(C(=O)O)C5)cc4)nc3)CC2)CC1 (stereo partly shown) [Compound 30]
9,2500 to 5000,CCCC1CCN(C2CC=C(c3cnc(-c4ccc(C[C@H](NC(=O)c5ccc(C(C)(C)C)s5)C(=O)N5CC(C(=O)O)C5)cc4)nc3)CC2)CC1 (stereo partly shown) [Compound 46]
10,500 to 2500,CC(C)C1CC=C(c2cnc(-c3ccc(C[C@H](NC(=O)c4ccc(C(C)(C)C)s4)C(=O)N4CC(C(=O)O)C4)cc3)nc2)CC1 (stereo partly shown) [Compound 40]
11,500 to 2500,CCC1CC=C(c2cnc(-c3ccc(C[C@H](NC(=O)c4ccc(C(C)(C)C)s4)C(=O)N[C@H](C)C(=O)O)cc3)nc2)CC1 (stereo partly shown) [Compound 51]
12,< 500,CCCC1CCC(C2CCC(c3cnc(-c4ccc(C[C@H](NC(=O)c5ccc(C(C)(C)C)s5)C(=O)N[C@H](C)C(=O)O)cc4)nc3)CC2)CC1 (stereo partly shown) [Compound 67]
13,< 500,CCCC1CCC(C2CC=C(c3cnc(-c4ccc(C[C@H](NC(=O)c5ccc(C(C)(C)C)s5)C(=O)N5CCC[C@H]5C(=O)O)cc4)nc3)CC2)CC1 (stereo partly shown) [Compound 8]
14,< 500,"CCCC1CCC(C2CC=C(c3cnc(-c4ccc(C[C@H](NC(=O)c5ccc(CC)s5)C(=O)N5CC(C(=O)O)C5)cc4)nc3)CC2)CC1 (stereo partly drawn) [Compound 31, 1-((S)-2-(5-ethylthiophene-2-carboxamido)-3-(4-(5-((1RS,1′s,4′RS)-4′-propyl-[1,1′-bi(cyclohexan)]-3-en-4-yl)pyrimidin-2-yl)phenyl)propanoyl)azetidine-3-carboxylic acid]"
15,2500 to 5000,C[C@@H](NC(=O)[C@H](Cc1ccc(-c2ncc(C3=CCCC(NC(=O)OC(C)(C)C)C3)cn2)cc1)NC(=O)c1ccc(C(C)(C)C)s1)C(=O)O (stereo partly shown) [Compound 69]
16,500 to 2500,CC[C@H]1CC[C@H](C2CC=C(c3cnc(-c4ccc(C[C@H](NC(=O)c5ccc(OC(C)(C)C)cc5)C(=O)N5CC(C(=O)O)C5)cc4)nc3)CC2)CC1 (stereo partly shown) [Compound 95]
17,< 500,CCCC1CCC(C2CC=C(c3cnc(-c4ccc(C[C@H](NC(=O)c5ccc(C6CC6)s5)C(=O)N5CC(C(=O)O)C5)cc4)nc3)CC2)CC1 (stereo partly shown) [Compound 34]
18,< 500,CC[C@H]1CC[C@H](C2CC=C(c3cnc(-c4ccc(C[C@H](NC(=O)c5ccc(C(C)(C)C)s5)C(=O)NCCC(=O)O)cc4)nc3)CC2)CC1 (stereo partly shown) [Compound 107]
19,500 to 2500,CCCC1CCC(C2CC=C(c3cnc(-c4ccc(C[C@H](NC(=O)c5ccc(C(C)(C)C)nc5)C(=O)N5CC(C(=O)O)C5)cc4)nc3)CC2)CC1 (stereo partly shown) [Compound 29]
20,< 500,CCCC1CCC(C2CC=C(c3cnc(-c4ccc(C[C@H](NC(=O)c5ccc(CC)cc5)C(=O)N5CC(C(=O)O)C5)cc4)nc3)CC2)CC1 (stereo partly shown) [Compound 21]
21,< 500,CC[C@H]1CC[C@H](C2CC=C(c3cnc(-c4ccc(C[C@H](NC(=O)c5ccc(C(C)(C)C)cc5)C(=O)N5CC(C(=O)O)C5)cc4)nc3)CC2)CC1 (stereo partly shown) [Compound 94]
